# Measured values reported in patent US11311609B2, “Regulating chimeric antigen receptors” (DANA-FARBER CANCER INSTITUTE, INC., priority 2017, dated 2022).
# Legend:
# Type in all cases: cell-based
# FKBP* fused to Nluc = assay: Nluc/Fluc luciferase signal ratio assay of FKBP* degradation in 293FT cells; conditions: wild type or CRBN-/- 293FT cells; indicated concentrations, 4 hours
# Description: FIG. 7A and FIG. 7B are graphs measuring the activity of a panel of dFKBP heterobifunctional compounds in cells expressing FKBP* fused to Nluc. Degradation of FKBP* is measured as a signal ratio (Nluc/Fluc) between NANOluc and firefly luciferase from the same multicistronic transcript in wild type (FIG. 7A) or CRBN −/− (FIG. 7B) 293FT cells treated with indicated concentrations of dFKBPs for 4 hours. A decrease in the signal ratio indicates FKBP* (Nluc) degradation. Additional experimental details are provided in Example 4.
# In an effort to identify potent and selective dFKPB heterobifunctional compounds, high throughput measurements of targeted FKBP* degradation were measured by surrogate levels of luciferase. Here, FKBP* is exogenously expressed as a multicistronic transcript with two types of luciferase: nano luciferase (NLuc) and firefly luciferase (FLuc) that allow for cell normalized quantification of FKBP* protein levels. Degradation of FKBP* is measured as a signal ratio (Nluc/Fluc) in wild type (FIG. 7A) or CRBN −/− (FIG. 7B) 293FT cells treated with indicated concentrations of dFKBPs for 4 hours.
# [1] = test system: proteins fused to mutant FKBP* with an HA tag; assay: Immunoblot of dTAG fusion proteins in MV4;11 leukemia cells; conditions: indicated concentrations, 16 hours
# Description: FIG. 18A and FIG. 18B are immunoblots of cells treated with heterobifunctional compounds described in the present invention. Immunoblots of MV4; 11 leukemia cells expressing indicated proteins fused to mutant FKBP* with an HA tag. Cells were treated for 16 hours with indicated concentrations of FKBP* selective heterobifunctional compounds, dFKBP7 or dFKBP13 and abundance of fusion proteins measured by western immunoblot analysis. Additional experimental details are given in Example 15.
# To test the general utility of the dTAG technology across several protein types, the indicated proteins fused to the dTAG in MV4; 11 leukemia cells were expressed. Upon treatment with the indicated dFKBP bifunctional molecules (dFKBP7 and dFKBP13), targeted protein degradation was observed as measured by western blot.
# FKBP*-KRASG12V = assay: Immunoblot of FKBP*-KRASG12V degradation in NIH3T3 cells; conditions: NIH3T3 cells; 500 nM, indicated time
# Description: FIG. 19 is an immunoblot of NIH3T3 cells expressing KRASG12V allele fused to FKBP* in the N-terminus or C-terminus. Cells were treated with 500 nM dFKBP7 for the indicated time. Cells were harvested and immunoblotted to measure degradation of FKBP*-KRASG12V and downstream surrogates of KRAS signaling (e.g. pMEK and pAKT).
# (§1) Cells were harvested and immunoblotted to measure degradation of FKBP*-KRASG12V and downstream surrogates of KRAS signaling (e.g. pMEK and pAKT).
# as §1, §1
# Cells were treated with 500 nM dFKBP7 for the indicated time. Cells were harvested and immunoblotted to measure degradation of FKBP*-KRAS and downstream surrogates of KRAS signaling (e.g. pMEK and pAKT).
# (§2) Cells were harvested and immunoblotted to measure degradation of FKBP*-KRAS and downstream surrogates of KRAS signaling (e.g. pMEK and pAKT).
# as §2
# To evaluate the kinetic control of targeted degradation of dTAG-KRAS, dFKBP13 was administered by increased duration. […]
# IL-2 = IL-2 ELISA of co-culture supernatants of SMART-CAR expressing Jurkat T-cells; conditions: CD19 positive Raji cells; 1:3 ratio; 4 hours; 250 nM dFKBP7
# Description: FIG. 35 is a histogram bar plot quantifying IL-2 levels produced from SMART-CAR expressing Jurkat T-cells after co-incubation with antigen expressing K562 cells in a 1:3 ratio (T cell to K562 cell) for 24 hours as described in Example 29. IL-2 levels were quantified by ELISA using co-culture supernatants.
# FIG. 36 is a histogram bar plot quantifying IL-2 levels produced from SMART-CAR expressing Jurkat T-cells after co-incubation with CD19 positive Raji cells in a 1:3 ratio (T cells to Raji cells) for 4 hours.
# FIG. 35 illustrates the specificity in activation of SMART-CAR expressing T-cells for CD19 expressing target tumor cells. SMART-CAR expressing Jurkat T-cells were co-incubated with antigen expressing K562 cells in a 1:3 ratio (T cell to K562 cell) for 24 hours. IL-2 levels were quantified by ELISA using co-culture supernatants.
# FIG. 36 illustrates the chemical control of SMART-CAR expressing T-cell activation using the hetero bifunctional molecule dFKBP7. SMART-CAR expressing Jurkat T-cells were co-incubated with CD19 positive Raji cells in a 1:3 ratio.
smiles,measurement,setting,value
CC[C@H](C(=O)N1CCCC[C@H]1C(=O)O[C@H](CCc1ccc(OC)c(OC)c1)c1cccc(OCC(=O)NCCCOCCOCCOCCCNC(=O)COc2cccc3c2C(=O)N(C2CCC(=O)NC2=O)C3=O)c1)c1cc(OC)c(OC)c(OC)c1 (stereo partly shown) [dFKBP7],"FKBP* (Nluc) degradation, signal ratio Nluc/Fluc",FKBP* fused to Nluc,effectively degrade FKBP* in a cereblon dependent manner
same,Degradation of proteins fused to dTAG,[1],degradation was observed with nanomolar concentrations
same,Degradation of N-terminal dTAG-KRAS,FKBP*-KRASG12V,potent degradation
same,IL-2 production,IL-2,completely suppressed
